Columns and labels:
Assay type in all cases: physicochemical
[1] = Physical stability of crystal forms at high relative humidity (one week storage)
Source text: X-ray diffraction data described herein was obtained by the powder diffraction method. X-Ray powder diffraction data were obtained using methods known in the art with a SCINTAG powder X-Ray diffractometer model X'TRA equipped with a solid state detector. Copper radiation of 1.5418 Å was used. A round aluminum sample holder with a round zero background quartz plate, with cavity of 25 mm×0.5 mm.
Thermogravimetric analysis (TGA) is a technique of thermal analysis well known in the art and measures the change in weight of a sample as a function of temperature. The technique is particularly well suited for measurement of, for example, decomposition and desolvation. TGA results reported herein were obtained using a Mettler TG50. Sample size was between about 6 and about 15 mg. Samples were analyzed at a heating rate of 10° C./min from 25° C. to 250 C. The oven was purged with nitrogen gas at a flow rate of 40 ml/min. Standard alumina crucibles covered by lids with one hole were used.
(§1) The stability of crystalline forms of risedronate sodium against transformation to form A is measured by exposing a sample to an atmosphere having a percent relative humidity (RH or %RH) of at least about 50% at a temperature greater than room temperature for a period of time. It is convenient to evaluate the stability of a crystalline form of risedronate sodium against transformation to form A by exposing a sample to an atmosphere having RH of about 75% at a temperature of 40° C. for a period of at least 3 months. The experience of the skilled artisan teaches that a pharmaceutical that is stable under these conditions will be stable for at least 2 years at room temperature.

[2] = Stability test of risedronate tablets at 40° C., 75% RH (crystal form by X-Ray powder diffraction); details: 5 months, stressed conditions of 40° C. and 75% RH
Source text: The crystal form (detected from X-Ray powder diffraction data) of Risedronate active ingredient in the tablet are shown in the following table.

[3] = Stability of form B against transformation to form A at 40° C. / 75% RH
Experimental: X-ray diffraction analysis can be used to detect and quantify one crystalline form of risedronate sodium in another.
as §1

[4] = Physical stability of crystal forms at high relative humidity (one week storage); details: 80%-100% RH at room temperature for at least one week; 'not substantially' = not more than about 20%
[5] = relative humidity 80%, one week storage, listed as D (MS-273), monosodium salt

Which “TGA Weight Loss (%)” value ([1]; relative humidity 20-80%, one week storage) does the source give for `O=P([O-])(O)C(O)(Cc1cccnc1)P(=O)(O)O.[Na+]` [Form G, 1-hydroxy-2(3-pyridinyl)ethylidene bis phosphonic acid monosodium salt] here?
The value was 9.4-10.2%.

What about the “TGA Weight Loss (%)” value ([1]; relative humidity 100%, one week storage) of the same molecule?
The value was 12.6%.

And the Resulting form ([1]; relative humidity 100%, one week storage, listed as G (MS-257 160 C. 8 hr), monosodium salt)?
Its Resulting form is “G + A”.

And the Resulting form ([1]; relative humidity 100%, one week storage, listed as form G, monosodium salt)?
Its Resulting form is “a mixture of form G and form A”.

For `O=P([O-])(O)C(O)(Cc1cccnc1)P(=O)(O)O.[Na+]` [Form B, 1-hydroxy-2(3-pyridinyl)ethylidene bis phosphonic acid monosodium salt], which “Conversion to form A hemipentahydrate” value ([1]; 75% to 100% RH for one week or more, 'not substantially' = not more than about 20%) is on record?
The value was “does not substantially convert”.

And the “TGA Weight Loss (%)” value ([1]; relative humidity 80%, one week storage, listed as B (LB-89), monosodium salt)?
Its value is 6.5%.

What about the “Stability of form B in tablets” value [2] of the same molecule?
The value was “stable”.

What about the “Part of form B that transforms to form A” value ([3]; RH of 75% at 40° C. for at least three months) of the same molecule?
Its value is “less than 20%”.

What about the “Conversion to form A hemipentahydrate” value ([3]; storage at 40° C. and 75% RH for 6 months, 'not substantially' = not more than about 20%) of the same molecule?
The value was “does not substantially convert”.

For `O=P([O-])(O)C(O)(Cc1cccnc1)P(=O)(O)O.[Na+]` [Form E, 1-hydroxy-2(3-pyridinyl)ethylidene bis phosphonic acid monosodium salt], which “TGA Weight Loss (%)” value ([1]; relative humidity 80%, one week storage, listed as E (MS-277), monosodium salt) is on record?
The value was 14.0%.

What about the Resulting form ([1]; relative humidity 80%, one week storage, listed as form E, monosodium salt) of the same molecule?
Its Resulting form is “form A with a small quantity of form D”.

Which results are given for `O=P([O-])(O)C(O)(Cc1cccnc1)P(=O)(O)O.[Na+]` [Form C, 1-hydroxy-2(3-pyridinyl)ethylidene bis phosphonic acid monosodium salt]?
TGA Weight Loss (%) ([1]; relative humidity 80%, one week storage, listed as C (LB-87), monosodium salt): 16.0%; Resulting form ([1]; relative humidity 80%, one week storage, listed as form C, monosodium salt): a mixture of form C and form H; Conversion to form A [4]: does not substantially convert

What does the source list for `O=P([O-])(O)C(O)(Cc1cccnc1)P(=O)(O)O.[Na+]` [Form F, 1-hydroxy-2(3-pyridinyl)ethylidene bis phosphonic acid monosodium salt]?
TGA Weight Loss (%) ([1]; relative humidity 20-60%, one week storage): 4-6%; Resulting form ([1]; relative humidity 80%, one week storage, listed as form F, monosodium salt): a mixture of form BB; TGA Weight Loss (%) ([1]; relative humidity 80-100%, one week storage): 11.3-12.3%; Resulting form ([1]; relative humidity 80-100%, one week storage, listed as F (LB-104 160 C. 8 hr), monosodium salt): BB > A; Resulting form ([1]; relative humidity 80-100%, one week storage, listed as form F, monosodium salt): form BB; Resulting form ([1]; relative humidity 100%, one week storage, listed as form F, monosodium salt): form BB; Rearrangement to the hemipentahydrate form ([1]; up to 100% relative humidity, one week storage): does not substantially rearrange

For `O=P([O-])(O)C(O)(Cc1cccnc1)P(=O)(O)O.[Na+]` [Form D, 1-hydroxy-2(3-pyridinyl)ethylidene bis phosphonic acid monosodium salt], which Resulting form [1, 5] is on record?
Its Resulting form is “D > B”.

What about the “TGA Weight Loss (%)” value [1, 5] of the same molecule?
Its value is 1.1%.

What about the Resulting form ([1]; relative humidity 80%, one week storage, listed as form D, monosodium salt) of the same molecule?
Its Resulting form is “a mixture of form D and form B”.

And the Resulting form ([1]; relative humidity 80-100%, one week storage, monosodium salt)?
Its Resulting form is “form B”.

For `O=P([O-])(O)C(O)(Cc1cccnc1)P(=O)(O)O.[Na+]` [Form A, 1-hydroxy-2(3-pyridinyl)ethylidene bis phosphonic acid monosodium salt, reference compound], which “TGA Weight Loss (%)” value ([1]; relative humidity 80%, one week storage, listed as A (LB-91), monosodium salt) is on record?
The value was 13.6%.
